These are literature values, as cited in patent US20200009266A1, “IN VIVO GENE THERAPY FOR IMMUNE DEFICIENCIES” (priority 2017, published 2020).

One data set has as its system circulating CD34+ cells. Particulars: AMD3100 alone, adult dogs.
Data set [1] concerns peripheral blood lymphocytes. As to conditions: rhesus macaques.

Take `c1cc(CN2CCCNCCNCCCNCC2)ccc1CN1CCCNCCNCCCNCC1` [AMD3100]: in the data set with circulating CD34+ cells, the “time of peak mobilization post treatment” value was 8 to 10 h and the tolerability of treatment result is “well tolerated”. Moreover, the “lymphocyte numbers in peripheral blood” value in data set [1] is “increased numbers of B and T lymphocytes”.
